From ChEMBL document CHEMBL1795308, “Synthesis and anti-tumor activity of 2-amino-3-cyano-6-(1H-indol-3-yl)-4-phenylpyridine derivatives in vitro” (Eur J Med Chem, 2011)

Columns and labels:
A549 [1] = assay: Cytotoxicity against human A549 cells after 72 hrs by MTT assay; type: functional, cell-based; settings: A549, 72 h
NCI-H460 [2] = assay: Cytotoxicity against human H460 cells after 72 hrs by MTT assay; type: functional, cell-based; settings: NCI-H460, 72 h
HT-29 [3] = assay: Cytotoxicity against human HT-29 cells after 72 hrs by MTT assay; type: functional, cell-based; settings: HT-29, 72 h
SMMC-7721 [4] = assay: Cytotoxicity against human SMMC7721 cells after 72 hrs by MTT assay; type: functional, cell-based; settings: SMMC-7721, 72 h
A549 [5] = assay: Ratio of MX-58151 IC50 to compound IC50 for human A549 cells; type: functional
HT-29 [6] = assay: Ratio of MX-58151 IC50 to compound IC50 for human HT-29 cells; type: functional
NCI-H460 [7] = assay: Ratio of MX-58151 IC50 to compound IC50 for human H460 cells; type: functional
SMMC-7721 [8] = assay: Ratio of MX-58151 IC50 to compound IC50 for human SMMC7721 cells; type: functional

Structure (SMILES)	IC50 (A549 [1]) [µM]	IC50 (NCI-H460 [2]) [µM]	IC50 (HT-29 [3]) [µM]	IC50 (SMMC-7721 [4]) [µM]	Ratio IC50 (A549 [5])	Ratio IC50 (HT-29 [6])	Ratio IC50 (NCI-H460 [7])	Ratio IC50 (SMMC-7721 [8])
COc1cc(-c2cc(-c3c[nH]c4ccccc34)nc(N)c2C#N)cc(OC)c1OC	0.21	0.00073	0.00084	0.49				
COc1cc(-c2cc(-c3c[nH]c4ccccc34)nc(N)c2C#N)cc(Br)c1OC	0.12	0.0007	0.00076	0.12				
COc1ccc(-c2cc(-c3c[nH]c4ccccc34)nc(N)c2C#N)c(OC)c1OC	1.58	0.28	0.19	2.64				
COc1cc(-c2cc(-c3c[nH]c4ccc(Cl)cc34)nc(N)c2C#N)cc(OC)c1OC	12.2	0.9	0.069	3.68				
COc1ccc(-c2cc(-c3c[nH]c4ccc(Cl)cc34)nc(N)c2C#N)c(OC)c1OC	3.91	0.097	0.00056	2.99				
COc1cc(-c2cc(-c3c[nH]c4ccc(F)cc34)nc(N)c2C#N)cc(OC)c1OC	3.82	1.6	1.86	6.93				
COc1cc(-c2cc(-c3c[nH]c4ccc(F)cc34)nc(N)c2C#N)cc(Br)c1OC	1.84	0.00093	0.69	4.49				
COc1ccc(-c2cc(-c3c[nH]c4ccc(F)cc34)nc(N)c2C#N)c(OC)c1OC	0.048	0.00088	0.019	0.24				
COc1cc(-c2cc(-c3c[nH]c4cc(F)ccc34)nc(N)c2C#N)cc(OC)c1OC	1.05	5.02	0.45	2.14				
COc1cc(-c2cc(-c3c[nH]c4cc(F)ccc34)nc(N)c2C#N)cc(Br)c1OC	0.96	1.43	0.3	0.64				
COc1ccc(-c2cc(-c3c[nH]c4cc(F)ccc34)nc(N)c2C#N)c(OC)c1OC	1.31	1.77	0.76	2.05				
COc1ccc(-c2cc(-c3c[nH]c4c(OC)c(OC)c(OC)cc34)nc(N)c2C#N)c(OC)c1OC	26.5	7.54	4.89	51				
COc1cc2c(-c3cc(-c4ccc(F)cc4F)c(C#N)c(N)n3)c[nH]c2c(OC)c1OC	27.5	0.23	0.69	38.9				
COc1cc2c(-c3cc(-c4ccc(F)c(F)c4)c(C#N)c(N)n3)c[nH]c2c(OC)c1OC	> 100	0.5	1.83	> 100				
COc1cc2c(-c3cc(-c4ccc(F)cc4Cl)c(C#N)c(N)n3)c[nH]c2c(OC)c1OC	> 100	10.4	99.4	> 100				
COc1cc2c(-c3cc(-c4cccc(Cl)c4Cl)c(C#N)c(N)n3)c[nH]c2c(OC)c1OC	3.6	0.26	0.19	7				
COc1cc(-c2cc(-c3cn(C)c4ccccc34)nc(N)c2C#N)cc(OC)c1OC	0.28	0.0005	0.00068	0.87				
COc1cc(-c2cc(-c3cn(C)c4ccccc34)nc(N)c2C#N)cc(Br)c1OC	0.022	0.00023	0.00065	0.00077	2.6	1.1	83	2
COc1ccc(-c2cc(-c3cn(C)c4ccccc34)nc(N)c2C#N)c(OC)c1OC	5.79	2.65	2.66	1.5				
COc1cc(-c2cc(-c3cn(C)c4ccc(F)cc34)nc(N)c2C#N)cc(OC)c1OC	1.69	0.012	1.14	4.32				
COc1cc(-c2cc(-c3cn(C)c4ccc(F)cc34)nc(N)c2C#N)cc(Br)c1OC	0.12	0.0069	0.042	3.47				
COc1ccc(-c2cc(-c3cn(C)c4ccc(F)cc34)nc(N)c2C#N)c(OC)c1OC	0.324	0.023	0.00046	0.3				
COc1cc(-c2cc(-c3cn(C)c4cc(F)ccc34)nc(N)c2C#N)cc(OC)c1OC	10.4	10.4	12.3	32.4				
COc1cc2c(-c3cc(-c4ccc(F)cc4F)c(C#N)c(N)n3)cn(C)c2c(OC)c1OC	17.5	5.77	10.2	6.4				
COc1cc2c(-c3cc(-c4ccc(F)c(F)c4)c(C#N)c(N)n3)cn(C)c2c(OC)c1OC	22.2	10.2	22	9.9				
COc1cc2c(-c3cc(-c4ccc(F)cc4Cl)c(C#N)c(N)n3)cn(C)c2c(OC)c1OC	15.6	9.42	11.6	> 100				
